Experimental data as given in patent US20090105283A1, “3-HYDROQUINAZOLIN-4-ONE DERIVATIVES FOR USE AS STEAROYL CoA DESATURASE INHIBITORS” (priority 2007, published 2009).

Target: T1, stearoyl-CoA desaturase (SCD) (Rattus norvegicus, UniProt P07308)
T1 construct: The microsomes were quickly thawed and added to assay buffer so that a concentration of 0.4 mg/ml was achieved; from tissue
T1 sequence (P07308 1-358): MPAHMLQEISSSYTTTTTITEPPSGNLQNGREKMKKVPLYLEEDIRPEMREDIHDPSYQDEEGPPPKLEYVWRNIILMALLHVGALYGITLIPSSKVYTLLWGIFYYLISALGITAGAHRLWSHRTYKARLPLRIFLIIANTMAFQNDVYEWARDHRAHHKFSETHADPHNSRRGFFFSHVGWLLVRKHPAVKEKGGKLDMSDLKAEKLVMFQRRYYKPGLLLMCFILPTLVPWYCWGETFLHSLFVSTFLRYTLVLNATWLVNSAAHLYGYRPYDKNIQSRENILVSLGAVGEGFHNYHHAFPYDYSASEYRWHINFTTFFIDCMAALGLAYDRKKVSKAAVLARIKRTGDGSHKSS
Assay: SCD assay with rat liver microsomes ([3H]stearoyl CoA, adapted from Talamo and Bloch)
Assay type: biochemical
Conditions: Table 2 (Example 21, procedures of Example 20); rat liver microsomes, [3H]stearoyl CoA substrate
Method in brief: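 Liver microsomes came from diet-induced male Sprague Dawley rats and were used at 0.2 mg/ml final. Assay buffer was Tris pH 7.2 with NADH, ATP, CoA, MgCl2 and 0.1% BSA. Compounds were preincubated 30 min, then reacted 45 min at room temperature with [3H]stearoyl-CoA; after TCA stop and Bio-Bead cleanup, supernatant radioactivity was counted by scintillation.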

Row | SMILES | IC50
1 | O=C(Nc1ccc2ncn(CCCCOc3cc(Cl)ccc3Cl)c(=O)c2c1)OCc1ccccc1 [compound 54, benzyl 3-(4-(2,5-dichlorophenoxy)butyl)-4-oxo-3,4-dihydroquinazolin-6-ylcarbamate] | 0.15 µM
2 | O=C(Nc1ccc2ncn(CCOc3ccccc3Cl)c(=O)c2c1)OCc1ccccc1 [compound 57, benzyl 3-(2-(2-chlorophenoxy)ethyl)-4-oxo-3,4-dihydroquinazolin-6-ylcarbamate] | 0.18 µM
3 | O=C(Nc1ccc2ncn(CCCOc3ccccc3Cl)c(=O)c2c1)OCc1ccccc1 [compound 59, benzyl 3-(3-(2-chlorophenoxy)propyl)-4-oxo-3,4-dihydroquinazolin-6-ylcarbamate] | 0.045 µM
4 | O=C(CO)Nc1ccc2ncn(Cc3cccc(COc4cc(Cl)ccc4Cl)c3)c(=O)c2c1 [compound 61, N-(3-(3-((2,5-dichlorophenoxy)methyl)benzyl)-4-oxo-3,4-dihydroquinazolin-6-yl)-2-hydroxyacetamide] | 0.49 µM
5 | O=C(Nc1ccc2ncn(Cc3cccc(COc4cc(Cl)ccc4Cl)c3)c(=O)c2c1)OCc1ccccc1 [compound 62, benzyl 3-(3-((2,5-dichlorophenoxy)methyl)benzyl)-4-oxo-3,4-dihydroquinazolin-6-ylcarbamate] | 0.62 µM
6 | O=C(CO)Nc1ccc2ncn(CCNC(=O)c3ccccc3C(F)(F)F)c(=O)c2c1 [compound 69, N-(2-(6-(2-hydroxyacetamido)-4-oxoquinazolin-3(4H)-yl)ethyl)-2-(trifluoromethyl)benzamide] | 5.2 µM
7 | O=C(CO)Nc1ccc2ncn(CCNS(=O)(=O)c3cc(Cl)ccc3Cl)c(=O)c2c1 [compound 71, N-(3-(2-(2,5-dichlorophenylsulfonamido)ethyl)-4-oxo-3,4-dihydroquinazolin-6-yl)-2-hydroxyacetamide] | 15 µM
8 | O=C(CO)Nc1ccc2ncn(CCCNS(=O)(=O)c3ccccc3C(F)(F)F)c(=O)c2c1 [compound 73, 2-hydroxy-N-(4-oxo-3-(3-(2-(trifluoromethyl)phenylsulfonamido)propyl)-3,4-dihydroquinazolin-6-yl)acetamide] | 14 µM
9 | Cc1ccccc1OCC(O)Cn1cnc2ccc(NC(=O)CO)cc2c1=O (stereo not shown) [compound 76, 2-hydroxy-N-(3-(2-hydroxy-3-(o-tolyloxy)propyl)-4-oxo-3,4-dihydroquinazolin-6-yl)acetamide] | 4 µM
10 | O=C(Nc1cnc2ncn(Cc3ccc(Cl)c(Cl)c3)c(=O)c2c1)OCc1ccccc1 [compound 77, benzyl 3-(3,4-dichlorobenzyl)-4-oxo-3,4-dihydropyrido[2,3-d]pyrimidin-6-ylcarbamate] | 0.36 µM
11 | O=C(CO)Nc1cnc2ncn(Cc3ccc(Cl)c(Cl)c3)c(=O)c2c1 [compound 78, N-(3-(3,4-dichlorobenzyl)-4-oxo-3,4-dihydropyrido[2,3-d]pyrimidin-6-yl)-2-hydroxyacetamide] | 0.18 µM
12 | O=C(CO)Nc1cnc2ncn(Cc3ccc(Cl)cc3)c(=O)c2c1 [compound 79, N-(3-(4-chlorobenzyl)-4-oxo-3,4-dihydropyrido[2,3-d]pyrimidin-6-yl)-2-hydroxyacetamide] | 1.7 µM
13 | O=C(Nc1cnc2ncn(Cc3ccc(Cl)cc3)c(=O)c2c1)OCc1ccccc1 [compound 80, benzyl 3-(4-chlorobenzyl)-4-oxo-3,4-dihydropyrido[2,3-d]pyrimidin-6-ylcarbamate] | 0.078 µM
14 | O=C(NCCO)c1ccc2ncn(Cc3ccc(Cl)c(Cl)c3)c(=O)c2c1 [compound 81, 3-(3,4-dichlorobenzyl)-N-(2-hydroxyethyl)-4-oxo-3,4-dihydroquinazoline-6-carboxamide] | 2.7 µM
15 | COCCNC(=O)c1ccc2ncn(Cc3ccc(Cl)c(Cl)c3)c(=O)c2c1 [compound 82, 3-(3,4-dichlorobenzyl)-N-(2-methoxyethyl)-4-oxo-3,4-dihydroquinazoline-6-carboxamide] | 1.5 µM
16 | COCCNC(=O)c1ccc2c(=O)n(Cc3ccc(Cl)c(Cl)c3)cnc2c1 [compound 83, 3-(3,4-dichlorobenzyl)-N-(2-methoxyethyl)-4-oxo-3,4-dihydroquinazoline-7-carboxamide] | 0.58 µM
17 | O=C(NCCO)c1ccc2c(=O)n(Cc3ccc(Cl)c(Cl)c3)cnc2c1 [compound 84, 3-(3,4-dichlorobenzyl)-N-(2-hydroxyethyl)-4-oxo-3,4-dihydroquinazoline-7-carboxamide] | 0.63 µM
18 | O=C(NCc1ccccc1)c1ccc2c(=O)n(Cc3ccc(Cl)c(Cl)c3)cnc2c1 [compound 85, N-benzyl-3-(3,4-dichlorobenzyl)-4-oxo-3,4-dihydroquinazoline-7-carboxamide] | 0.95 µM
19 | O=C(NCCCO)c1ccc2c(=O)n(Cc3ccc(Cl)c(Cl)c3)cnc2c1 [compound 86, 3-(3,4-dichlorobenzyl)-N-(3-hydroxypropyl)-4-oxo-3,4-dihydroquinazoline-7-carboxamide] | 7.7 µM
20 | O=C(NCCOc1ccccc1)c1ccc2c(=O)n(Cc3ccc(Cl)c(Cl)c3)cnc2c1 [compound 87, 3-(3,4-dichlorobenzyl)-4-oxo-N-(2-phenoxyethyl)-3,4-dihydroquinazoline-7-carboxamide] | 1.7 µM
21 | CNC(=O)c1ccc2c(=O)n(Cc3ccc(Cl)c(Cl)c3)cnc2c1 [compound 88, 3-(3,4-dichlorobenzyl)-N-methyl-4-oxo-3,4-dihydroquinazoline-7-carboxamide] | 1.5 µM
22 | CNC(=O)c1ccc2c(=O)n(Cc3ccc(Cl)cc3)cnc2c1 [compound 89, 3-(4-chlorobenzyl)-N-methyl-4-oxo-3,4-dihydroquinazoline-7-carboxamide] | 7.5 µM
23 | O=C(NCc1ccc(F)cc1)c1ccc2c(=O)n(Cc3ccc(Cl)cc3)cnc2c1 [compound 90, 3-(4-chlorobenzyl)-N-(4-fluorobenzyl)-4-oxo-3,4-dihydroquinazoline-7-carboxamide] | 0.89 µM

The remaining lines, values ahead:

Row | IC50 | SMILES
24 | 0.24 µM | O=C(CO)Nc1ccc2ncn(CCCCOc3cc(Cl)ccc3Cl)c(=O)c2c1 [compound 55, N-(3-(4-(2,5-dichlorophenoxy)butyl)-4-oxo-3,4-dihydroquinazolin-6-yl)-2-hydroxyacetamide]
25 | 0.43 µM | O=C(CO)Nc1ccc2ncn(CCCc3ccccc3Cl)c(=O)c2c1 [compound 56, N-(3-(3-(2-chlorophenyl)propyl)-4-oxo-3,4-dihydroquinazolin-6-yl)-2-hydroxyacetamide]
26 | 0.34 µM | O=C(CO)Nc1ccc2ncn(CCOc3ccccc3Cl)c(=O)c2c1 [compound 58, N-(3-(2-(2-chlorophenoxy)ethyl)-4-oxo-3,4-dihydroquinazolin-6-yl)-2-hydroxyacetamide]
27 | 0.45 µM | O=C(CO)Nc1ccc2ncn(CCCOc3ccccc3Cl)c(=O)c2c1 [compound 60, N-(3-(3-(2-chlorophenoxy)propyl)-4-oxo-3,4-dihydroquinazolin-6-yl)-2-hydroxyacetamide]
28 | 4.9 µM | O=C(CO)Nc1ccc2c(=O)n(CCOc3ccccc3Cl)cnc2c1 [compound 63, N-(3-(2-(2-chlorophenoxy)ethyl)-4-oxo-3,4-dihydroquinazolin-7-yl)-2-hydroxyacetamide]
29 | 1.3 µM | O=C(CO)Nc1ccc2ncn(CCCCCOc3cc(Cl)ccc3Cl)c(=O)c2c1 [compound 64, N-(3-(5-(2,5-dichlorophenoxy)pentyl)-4-oxo-3,4-dihydroquinazolin-6-yl)-2-hydroxyacetamide]
30 | 0.64 µM | O=C(CO)Nc1ccc2ncn(CCCOc3cccc(Cl)c3Cl)c(=O)c2c1 [compound 65, N-(3-(3-(2,3-dichlorophenoxy)propyl)-4-oxo-3,4-dihydroquinazolin-6-yl)-2-hydroxyacetamide]
31 | 11 µM | O=C(CO)Nc1ccc2ncn(CCCOc3cc(C(F)(F)F)ccc3Cl)c(=O)c2c1 [compound 66, N-(3-(3-(2-chloro-5-(trifluoromethyl)phenoxy)propyl)-4-oxo-3,4-dihydroquinazolin-6-yl)-2-hydroxyacetamide]
32 | 21 µM | O=C(CO)Nc1ccc2ncn(CCNC(=O)c3cc(Cl)ccc3Cl)c(=O)c2c1 [compound 67, 2,5-dichloro-N-(2-(6-(2-hydroxyacetamido)-4-oxoquinazolin-3(4H)-yl)ethyl)benzamide]
33 | 23 µM | O=C(CO)Nc1ccc2ncn(CCCOc3ccccc3)c(=O)c2c1 [compound 68, 2-hydroxy-N-(4-oxo-3-(3-phenoxypropyl)-3,4-dihydroquinazolin-6-yl)acetamide]
34 | 3.1 µM | O=C(CO)Nc1ccc2ncn(CCCOc3ccc(Cl)cc3)c(=O)c2c1 [compound 70, N-(3-(3-(4-chlorophenoxy)propyl)-4-oxo-3,4-dihydroquinazolin-6-yl)-2-hydroxyacetamide]
35 | 21 µM | O=C(CO)Nc1ccc2ncn(CCCNS(=O)(=O)c3cc(Cl)ccc3Cl)c(=O)c2c1 [compound 72, N-(3-(3-(2,5-dichlorophenylsulfonamido)propyl)-4-oxo-3,4-dihydroquinazolin-6-yl)-2-hydroxyacetamide]
36 | 17 µM | O=C(CO)Nc1ccc2ncn(CCOc3ccc(Cl)cc3)c(=O)c2c1 [compound 74, N-(3-(2-(4-chlorophenoxy)ethyl)-4-oxo-3,4-dihydroquinazolin-6-yl)-2-hydroxyacetamide]
37 | 1.5 µM | O=C(CO)Nc1ccc2ncn(CCOc3cccc(Cl)c3)c(=O)c2c1 [compound 75, N-(3-(2-(3-chlorophenoxy)ethyl)-4-oxo-3,4-dihydroquinazolin-6-yl)-2-hydroxyacetamide]
